This assay concerns Botrytis cinerea. Kind of assay: Antifungal activity against Botrytis cinerea assessed as inhibition of radical growth by poisoned-food technique. It counts as functional, organism-based.

Active and inactive are the calls of the source. The rule behind the calls is not given here.

Turning to `CO[C@H]1CC(C)(C)[C@@H]2CC[C@@]3(C)C[C@]12CC[C@H]3O`, the result was Active.
